Experimental data: paper PMC6754346, “Compounds with capacity to quench the tyrosyl radical in Pseudomonas aeruginosa ribonucleotide reductase” (Journal of Biological Inorganic Chemistry, 2019)

Legend:
[1] = target: P. aeruginosa RNR active holoenzyme (NrdA/B complex) (Pseudomonas aeruginosa, UniProt Q9I4I1+Q9I4I2); assay: EPR, tyrosyl radical quenching in holoenzyme; assay type: biochemical; conditions: 133 µM compound, 12 µM each NrdA and NrdB, 5 mM ATP, 10 mM magnesium acetate, 30 mM DTT, 50 mM Tris pH 7.5; corrected for control decay
From the text: EPR, tyrosyl radical quenching in holoenzyme on P. aeruginosa RNR active holoenzyme (NrdA/B complex)

[2] = target: T1, NrdB (Pseudomonas aeruginosa, UniProt Q9I4I2); assay: EPR, tyrosyl radical quenching; assay type: biochemical; conditions: 133 µM compound, 15 µM Fe-reconstituted NrdB, 50 mM Tris pH 7.5, 1% DMSO, no DTT; corrected for control decay
T1 construct: homodimer concentrations; apoNrdB reconstituted with Fe2+ for EPR
From the text: EPR, tyrosyl radical quenching on NrdB

T1 sequence (Q9I4I2 1-415): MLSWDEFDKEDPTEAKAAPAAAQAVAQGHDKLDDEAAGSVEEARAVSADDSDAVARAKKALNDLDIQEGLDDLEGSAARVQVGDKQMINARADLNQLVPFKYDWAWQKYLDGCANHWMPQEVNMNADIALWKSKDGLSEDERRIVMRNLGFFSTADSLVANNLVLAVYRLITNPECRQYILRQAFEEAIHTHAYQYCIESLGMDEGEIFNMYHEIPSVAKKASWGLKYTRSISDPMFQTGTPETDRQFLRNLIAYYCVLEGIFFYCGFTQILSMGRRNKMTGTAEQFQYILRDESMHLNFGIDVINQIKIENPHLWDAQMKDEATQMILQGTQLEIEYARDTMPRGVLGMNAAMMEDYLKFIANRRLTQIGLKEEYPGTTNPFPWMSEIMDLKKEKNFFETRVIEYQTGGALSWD
Chain of P. aeruginosa RNR active holoenzyme (NrdA/B complex) (Q9I4I1 1-963): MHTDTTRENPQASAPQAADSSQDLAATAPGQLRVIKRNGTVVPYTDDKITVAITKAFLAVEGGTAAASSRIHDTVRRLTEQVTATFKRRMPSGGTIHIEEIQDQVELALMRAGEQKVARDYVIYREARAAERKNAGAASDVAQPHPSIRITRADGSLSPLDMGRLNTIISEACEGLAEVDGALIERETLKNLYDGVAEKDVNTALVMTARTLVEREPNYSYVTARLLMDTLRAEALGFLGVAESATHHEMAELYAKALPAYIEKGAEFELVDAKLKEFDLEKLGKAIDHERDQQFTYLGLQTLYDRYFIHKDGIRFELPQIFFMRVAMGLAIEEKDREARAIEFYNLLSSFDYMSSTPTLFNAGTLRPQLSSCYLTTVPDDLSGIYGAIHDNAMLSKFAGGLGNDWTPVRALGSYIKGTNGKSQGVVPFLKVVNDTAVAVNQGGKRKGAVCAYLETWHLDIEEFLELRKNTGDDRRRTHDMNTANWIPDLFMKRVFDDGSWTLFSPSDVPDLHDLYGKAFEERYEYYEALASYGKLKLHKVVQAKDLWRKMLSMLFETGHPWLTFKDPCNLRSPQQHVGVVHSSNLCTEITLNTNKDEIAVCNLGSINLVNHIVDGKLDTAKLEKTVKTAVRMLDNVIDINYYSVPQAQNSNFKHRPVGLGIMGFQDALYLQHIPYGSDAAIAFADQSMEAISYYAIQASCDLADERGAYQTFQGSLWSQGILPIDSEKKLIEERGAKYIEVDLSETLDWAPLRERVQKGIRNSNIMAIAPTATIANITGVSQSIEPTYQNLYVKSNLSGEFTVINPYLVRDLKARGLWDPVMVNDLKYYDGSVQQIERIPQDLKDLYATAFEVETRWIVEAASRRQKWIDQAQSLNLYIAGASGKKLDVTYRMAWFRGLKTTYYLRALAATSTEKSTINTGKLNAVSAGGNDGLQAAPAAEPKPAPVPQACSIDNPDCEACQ
Chain of P. aeruginosa RNR active holoenzyme (NrdA/B complex) (Q9I4I2 1-415): as the sequence (Q9I4I2 1-415) above

| SMILES | Tyrosyl radical decay rate [1] | Tyrosyl radical decay rate and radical left after 10 min / NrdB only^a [2] |
| --- | --- | --- |
| COc1ccc(C2=NC(=O)NC2c2ccc(OC)cc2)cc1 (stereo not drawn) [compound 26692, NSC26692] | 0.18 ± 0.19 min⁻¹ |  |
| COc1cc(-c2ccc(Nc3ccccc3C(=O)O)c(OC)c2)ccc1Nc1ccccc1C(=O)O [compound 73735, NSC73735] | 0.67 ± 0.01 min⁻¹ |  |
| CCc1oc2ccccc2c1C(=O)c1cc(Br)c(O)c(Br)c1 [compound 85433, NSC85433] | 0.33 ± 0.03 min⁻¹ |  |
| CC(=O)c1cc(O)c2ccccc2c1O [compound 111552, NSC111552] | 0.43 ± 0.32 min⁻¹ | 0.19 ± 0.03 min⁻¹ |
| N#Cc1c(C#N)c(O)c2ccccc2c1O [compound 128281, NSC128281] | 0.43 ± 0.03 min⁻¹ | 0.30 ± 0.07 min⁻¹ |
| CCOC(=O)/C=C(/C)Sc1cc(O)c2ccccc2c1O [compound 278631, NSC278631] |  | 0.40 ± 0.06 min⁻¹ |
| O=C(Nc1ccc(Cl)c(Cl)c1)Nc1ccccc1O [compound 522131, NSC522131] |  | 0.35 ± 0.04 min⁻¹ |
